One assay concerns the target T1, 5-HT1A (Homo sapiens, UniProt P08908).
T1 sequence (P08908 1-422): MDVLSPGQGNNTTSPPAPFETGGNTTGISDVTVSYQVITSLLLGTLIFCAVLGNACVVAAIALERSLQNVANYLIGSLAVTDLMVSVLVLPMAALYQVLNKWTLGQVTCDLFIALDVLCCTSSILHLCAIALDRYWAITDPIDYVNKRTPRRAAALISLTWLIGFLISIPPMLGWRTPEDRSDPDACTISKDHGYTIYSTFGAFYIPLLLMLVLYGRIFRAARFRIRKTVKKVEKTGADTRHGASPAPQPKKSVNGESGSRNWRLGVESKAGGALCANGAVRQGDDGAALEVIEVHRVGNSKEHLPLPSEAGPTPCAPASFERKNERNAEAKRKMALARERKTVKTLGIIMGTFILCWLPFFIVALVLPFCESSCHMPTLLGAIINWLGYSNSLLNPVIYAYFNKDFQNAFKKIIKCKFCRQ
The following applies: Schipper et al.; cited from earlier work.

The next assay deals with mice. Kind of assay: Timing/Peak Procedure operant test (attention, impulsivity). It is filed as in vivo. The following applies: 0.1 mg/kg IP, FIG. 1. An excerpt:
The Timing/Peak Procedure test is an operant test in which mice are trained to respond to a food reward at a fixed time interval of 30 sec. Mice learn to increase their responding around the 30 sec time period. This test assesses impulsivity, attention and timing perception. A high peak of responding at the 30 sec interval and narrow spread are signatures of the animal's improved attention and time perception.
In brief, mice were placed in a chamber and trained to lever press for food. After training, animals learn to respond after a fixed interval of 30 sec has elapsed as only this fixed interval response produces a reward. With reinforcement delivery the lever is retracted and an inter-trial-interval commences. Once the animal was trained on the reinforced trials, “peak trials” or unreinforced trials are introduced and intermixed with reinforced trials. During these empty trials, no responses were reinforced and the trial lasts for 120 sec (i.e., the lever is extended but reinforcement is not presented). After the 120 sec elapses, the trial terminated, the lever was retracted and the inter-trial-interval started as before. The animals therefore learned that if after a period of 30 sec, no food has been presented there will be no reinforcement delivery until the lever is retracted and the trial starts again.
To perform well on this task, animals need to learn an association between a response (lever pressing) and the delivery of reinforcement (condensed milk), they need to perceive and remember time, they need to act on the remembered time by responding or by inhibiting a response and finally they need to compare the elapsed time during a trial with their memory for the time for reinforcement. A true cognitive enhancer therefore should decrease responding after reinforcement time, without affecting the peak time, i.e., sharpening the curve and reducing the spread in the response curve. A sharpened curve is indicative of heightened attentional processes.

A further assay relates to rats. Kind of assay: Radial arm maze, scopolamine-induced working memory deficit. Type of assay: in vivo. The following applies: eltoprazine 0.3 mg/kg PO + scopolamine 0.5 mg/kg IP, ANOVA, FIG. 2. As to the method: Several mazes, such as the radial arm maze (RAM) have been adapted to assess working memory in rodents. The RAM consists of eight long runways radiating out in a circle from a central compartment. In the RAM rats learn to retrieve food rewards from all or a sub-set of the arms. Working memory is assessed by measuring entries into previously baited arms within a given trial. […] Hippocampal lesions produce deficits both in adults and in the neonatal hippocampal lesion model of schizophrenia.
For training, food deprived rats were placed in an enclosed cylinder in the center of the maze for 20 s, prior to being allowed to explore the maze by removing the cylinder. Each radial arm is baited with a food reward. Animals were given a maximum of 5 minutes to retrieve all food rewards. This training continued once daily for three weeks until animals met the performance criteria for successful acquisition of the task.
Four parameters were recorded to assess the performance of the rat: (1) the number of errors, which is defined as entering an arm that had already been entered, (2) the number of consecutive entries into un-visited arms before the first error occurred (entries to repeat), (3) latency to complete the task, and (4) the total number of arm entries before all food in the eight arms is collected or the maximum session duration is reached. […]

Assay [1] has as its system prefrontal cortex (PFC) of C57 mice. Kind of assay: Microdialysis in the prefrontal cortex. Conditions: 3, 10 and 30 mg/kg, six mice per dose group. It is filed as in vivo. As to the method:
Microdialysis probes were implanted in the prefrontal cortex; coordinates were: AP+2.0 mm, ML+0.7 mm (under an 8° angle) from bregma, DV −3.3 mm from the dura, with the tooth-bar also set at 0 mm. The active dialysis surface length of the membrane was 2 mm. Microdialysis experiments started 48 h (prefrontal cortex) after surgery. Ringer solution was perfused through the microdialysis probe at a flow at 1.166 μl/min using a high precision pump (KdScientific 220). Mouse dual channel swivels (Type 375/D/22QM, Instech Laboratories, Inc.) connected to PEEK-tubing (ID 0.005,″ OD 0.020″) were used to allow unrestrained movements of the mice. Samples were collected by hand 2.5 h after the start of the dialysis probe perfusion to obtain stable baseline values for the monoamines and their metabolites. The average of the first four samples was calculated and represents the baseline level. Samples were collected every 30 min were analyzed by HPLC with electrochemical detection.
Six mice per dose group were treated with vehicle or eltoprazine at 3 mg/kg, 10 mg/kg and 30 mg/kg.

A further assay deals with 5-HT1B (Homo sapiens, UniProt P28222). Conditions: Schipper et al.; cited from earlier work.

Structures are written as SMILES. Entries after “also recorded” stand apart in the source; their conditions may differ.

Chain of 5-HT1B (P28222 whole entry, species assumed): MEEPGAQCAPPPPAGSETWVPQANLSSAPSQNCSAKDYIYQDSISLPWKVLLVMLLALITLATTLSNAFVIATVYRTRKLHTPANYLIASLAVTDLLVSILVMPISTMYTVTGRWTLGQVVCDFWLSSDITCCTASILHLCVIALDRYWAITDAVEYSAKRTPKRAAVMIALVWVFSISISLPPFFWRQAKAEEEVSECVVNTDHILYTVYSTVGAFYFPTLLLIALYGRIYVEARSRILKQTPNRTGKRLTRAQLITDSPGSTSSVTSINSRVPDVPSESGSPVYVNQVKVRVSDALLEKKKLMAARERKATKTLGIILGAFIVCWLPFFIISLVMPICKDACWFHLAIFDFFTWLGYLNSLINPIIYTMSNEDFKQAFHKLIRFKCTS

For the molecule `c1cc2c(c(N3CCNCC3)c1)OCCO2` [Eltoprazine, 1-(2,3-dihydro-1,4-benzodioxanyl-5-yl) piperazine], at 5-HT1A, the “Binding affinity for 5-HT1A” value is “roughly equipotent affinity”. In the assay on mice, the Peak of responding entry is “sharpens the peak of responding” and the “Spread of the response curve” value was “significantly reduces the spread”. Moreover, the Peak of responding result with mice (listed as eltoprazine) is recorded as “sharpened the peak of responding”. Further, in the assay on mice (chronic administration), the “Effect following chronic administration” value is on record as “no loss of effect”. In addition, the “Effect on scopolamine-induced decrease of entries to repeat” value with rats is “attenuated”. In assay [1] (FIG. 4), the “Release of dopamine in the PFC” value is “significant release; also recorded: dose-related increase”. Besides, the “Release of the dopamine metabolite DOPAC in the PFC” value in assay [1] (FIG. 5) is given as “dose-related increase”. The “Release of the metabolite HVA in the PFC” value in assay [1] (FIG. 6) is “dose-related increase”. Moreover, in assay [1] (FIG. 7), the “Release of norepinephrine in the PFC” value is “significant release; also recorded: dose-related increase”. Moreover, the “Binding affinity for 5-HT1B” value at 5-HT1B is reported as “roughly equipotent affinity”.

The record behind these values is patent US20180228799A1, “Treatment for Neurological and Mental Disorders” (PSYCHOGENICS, INC., priority 2008, published 2018).
